The ASAP Discovery antiviral challenge data (2025)
Values after ≈ are worked out from the molar mass of the structure shown. Values joined by “and” are separate entries in the source; they are usually repeats but may differ in a detail not shown here. Equal entries are not always repeated.

Legend:
[1] = mouse; liver_microsomes
[2] = not given; remark: listed apart in the source
[3] = mdck_mdr1
[4] = human; liver_microsomes

SMILES	microsomal CLint [1]	solubility kinetic	logD [2]	Papp [3]	microsomal CLint [4]
O=C(Nc1ccc2c(c1)CNC2)c1cc(F)cc2[nH]c(-c3ccc(F)cc3)nc12	36.8 µL/min/mg	6 µM (≈ 2.34 µg/mL)	2.9	0.1 ×10⁻⁶ cm/s	
CC(C)[C@H](Nc1ncnc2[nH]c(-c3cnn(CC(=O)N(C)C)c3)cc12)c1ccc2c(c1)OCCO2 (single isomer, unassigned)	35 µL/min/mg and 45 µL/min/mg		2.9 and 3	2.05 ×10⁻⁶ cm/s and 1.62 ×10⁻⁶ cm/s	
Nc1nc(-c2ccccc2)nc2[nH]nc(Nc3ccc(C(F)(F)F)cc3)c12	11.2 µL/min/mg	2 µM (≈ 0.741 µg/mL)		1.76 ×10⁻⁶ cm/s	
CCNC(=O)c1cc2c(N[C@H](c3ccc4c(c3)S(=O)(=O)CCC4)C(C)C)ncnc2[nH]1 (single isomer, unassigned)	64 µL/min/mg and 54 µL/min/mg	337 µM and 316 µM	2.7 and 2.8	0.717 ×10⁻⁶ cm/s and 0.532 ×10⁻⁶ cm/s	
N#C[C@H](Nc1cccc(C(=O)O)c1)c1cc(Cl)cc2[nH]ncc12 (racemic)		112 µM (≈ 36.6 µg/mL)	0.6	1.22 ×10⁻⁶ cm/s	12 µL/min/mg
O=C(N[C@H]1[C@H]2CCCCC[C@H]2[C@H]1C(=O)Nc1cccc(C2CCNCC2)c1)OCc1ccccc1 (racemic)		49 µM (≈ 23.3 µg/mL)	2.8	0.395 ×10⁻⁶ cm/s	31.3 µL/min/mg
CCNC(=O)c1cc2c(N[C@H](c3ccc4c(c3)OCCO4)C(C)C)ncnc2[nH]1 (single isomer, unassigned)	48 µL/min/mg and 72 µL/min/mg		3.6	2.7 ×10⁻⁶ cm/s and 2.9 ×10⁻⁶ cm/s	
CC(C)[C@H](Nc1ncnc2[nH]ccc12)c1ccc2c(c1)S(=O)(=O)CCC2 (single isomer, unassigned)		374 µM and 386 µM	2.7 and 2.5	5.5 ×10⁻⁶ cm/s and 3.55 ×10⁻⁶ cm/s	57 µL/min/mg and 21 µL/min/mg
O=C(Nc1ccc2c(c1)CNC2)c1cc(Cl)cc2ccncc12	24.5 µL/min/mg	181 µM (≈ 58.6 µg/mL)	0.6	3.42 ×10⁻⁶ cm/s	
O=C(Nc1ccc2c(c1)CNC2)c1cc(Cl)cc2cn[nH]c12	54 µL/min/mg	184 µM (≈ 57.5 µg/mL)	1.2	4.63 ×10⁻⁶ cm/s	
CNC(=O)c1cc2c(N[C@H](c3ccc4c(c3)S(=O)(=O)CCC4)C(C)C)ncnc2[nH]1 (single isomer, unassigned)	47 µL/min/mg and 23 µL/min/mg	374 µM and 397 µM	2.3 and 2.4	0.891 ×10⁻⁶ cm/s and 0.377 ×10⁻⁶ cm/s	
O=C(Nc1ccc2c(c1)CNC2)c1cc(F)cc2[nH]ncc12	180 µL/min/mg			1.59 ×10⁻⁶ cm/s	
CC(C)[C@H](Nc1ncnc2[nH]ccc12)c1ccc2c(c1)NC(=O)CO2 (single isomer, unassigned)	37 µL/min/mg and 80 µL/min/mg	371 µM and 374 µM	1.8 and 2.2	3.4 ×10⁻⁶ cm/s and 8.7 ×10⁻⁶ cm/s	
O=C(Nc1cc2c(c(C3=CCOCC3)c1)CNC2)c1cc(F)cc2[nH]ncc12	152 µL/min/mg	157 µM (≈ 59.4 µg/mL)	0.9	1.1 ×10⁻⁶ cm/s	
O=C(Nc1cc2c(c(-c3c[nH]c(=O)c(F)c3)c1)CNC2)c1cc(F)cc2[nH]ncc12	243 µL/min/mg	66 µM (≈ 26.9 µg/mL)	0.4	0.651 ×10⁻⁶ cm/s	
Cc1c(C(=O)Nc2cc(-c3cccnc3)ccn2)cc(C2CC2)n1C	388 µL/min/mg	176 µM (≈ 58.5 µg/mL)		13.5 ×10⁻⁶ cm/s	
NCCc1ccc(NC(=O)c2cc(Cl)cc(NC(=O)OCc3ccccc3)c2)cc1		88 µM (≈ 37.3 µg/mL)	2.9	0.791 ×10⁻⁶ cm/s	17.5 µL/min/mg
Cc1cc(OCc2ccccc2)ccc1NS(=O)(=O)c1ccc(Cl)cc1C(=O)O		394 µM (≈ 170 µg/mL)	2.7	4.61 ×10⁻⁶ cm/s	22.3 µL/min/mg
O=C(O)c1cc(Cl)c(F)cc1S(=O)(=O)Nc1ccc(Oc2ccccc2Cl)cc1		396 µM (≈ 181 µg/mL)	3.3	4.29 ×10⁻⁶ cm/s	67.4 µL/min/mg
C=CC[C@H](Nc1cccc(-c2nn[nH]n2)c1)c1cc(Cl)cc(NC(=O)OCc2ccccc2)c1 (racemic)		332 µM (≈ 158 µg/mL)	4.1	1.24 ×10⁻⁶ cm/s	65.5 µL/min/mg
Cn1c(=O)[nH]c2c(C(=O)Nc3ccc4c(c3)CNC4)cc(Br)cc21	12.5 µL/min/mg	161 µM (≈ 62.3 µg/mL)	0.5	0.805 ×10⁻⁶ cm/s	
CNC(=O)[C@H](Nc1cc(Cl)cc(NC(=O)OCc2ccccc2)c1)c1cccc(-c2nn[nH]n2)c1 (racemic)		333 µM (≈ 164 µg/mL)	2.2	1.39 ×10⁻⁶ cm/s	21.3 µL/min/mg
O=C(Nc1cc(Cl)cc(C(=O)Nc2ccc3c(c2)CNC3)c1)OCc1ccccc1		35 µM (≈ 14.8 µg/mL)	2.8	1.25 ×10⁻⁶ cm/s	12.7 µL/min/mg
O=C(O)c1cc(Cl)ccc1NS(=O)(=O)c1ccc(-c2ccccc2Cl)cc1		397 µM (≈ 168 µg/mL)	3.6	7.59 ×10⁻⁶ cm/s	343 µL/min/mg
COc1ccc([C@H](Cc2nnn[nH]2)NC(=O)c2ncnc3[nH]ccc23)cc1 (racemic)		395 µM (≈ 144 µg/mL)	-0.1	1.39 ×10⁻⁶ cm/s	5 µL/min/mg
O=C(Nc1cc2c(cc1C1CC1)CNC2)c1cc(F)cc2[nH]ncc12	86.8 µL/min/mg	189 µM (≈ 63.6 µg/mL)	0.7	3.41 ×10⁻⁶ cm/s	

SMILES	microsomal CLint [1]	solubility kinetic	logD [2]	Papp [3]	microsomal CLint [4]
N#Cc1cccc(-c2nc3c(C(=O)Nc4ccc5c(c4)CNC5)cc(F)cc3[nH]2)c1	22 µL/min/mg	3 µM (≈ 1.19 µg/mL)	2		
CC(C)[C@H](Nc1ncnc2[nH]c(C(=O)N[C@H]3CCN(C)C3)cc12)c1ccc2c(c1)S(=O)(=O)CCC2 (single isomer, unassigned)		396 µM and 392 µM	1.4 and 1.5	0.175 ×10⁻⁶ cm/s and 0.325 ×10⁻⁶ cm/s	11 µL/min/mg and 26 µL/min/mg
O=C(Nc1ccc2c(c1)CNC2)c1cc(Cl)cc2c1cnn2C1CCC1	13.4 µL/min/mg	172 µM (≈ 63.1 µg/mL)	2	1 ×10⁻⁶ cm/s	
Cc1cc(-c2ccc([C@H](NC(=O)OCc3ccccc3)C(=O)Nc3cccc(CN)c3)cc2)cs1 (racemic)		8 µM (≈ 3.88 µg/mL)		1.19 ×10⁻⁶ cm/s	29.5 µL/min/mg
CC(C)NC(=O)[C@H](Nc1ccc2c(c1)CNC2)c1cc(Cl)cc2[nH]c(-c3ccccc3)nc12 (racemic)		154 µM (≈ 70.8 µg/mL)	2.9	0.432 ×10⁻⁶ cm/s	23.2 µL/min/mg
CNC(=O)c1c[nH]c2ncnc(N[C@H](c3ccc4c(c3)S(=O)(=O)CCC4)C(C)C)c12 (single isomer, unassigned)		336 µM and 204 µM	2.7 and 2.6	1.61 ×10⁻⁶ cm/s and 0.857 ×10⁻⁶ cm/s	258 µL/min/mg and 108 µL/min/mg
O=C(Nc1cc2c(c(C3=CCS(=O)(=O)CC3)c1)CNC2)c1cc(F)cc2[nH]ncc12	96.9 µL/min/mg	141 µM (≈ 60.1 µg/mL)	-0.1	1.3 ×10⁻⁶ cm/s	
CC[C@H](Cc1nnn[nH]1)c1ccc(NC(=O)c2cc(Cl)cc(NC(=O)OCc3ccccc3)c2)cc1 (racemic)		60 µM (≈ 30.3 µg/mL)	4.1	2.79 ×10⁻⁶ cm/s	24.9 µL/min/mg
O=C(Nc1cc(Cl)cc(C(=O)Nc2cccc(-n3nn[nH]c3=O)c2)c1)OCc1ccccc1		107 µM (≈ 49.7 µg/mL)	3.8	9.46 ×10⁻⁶ cm/s	11.2 µL/min/mg
N#C[C@H](Nc1cccc(-c2nn[nH]n2)c1)c1cc(Cl)cc(NC(=O)OCc2ccccc2)c1 (racemic)		344 µM (≈ 158 µg/mL)	3.2	3.23 ×10⁻⁶ cm/s	13.6 µL/min/mg
NCc1cccc(NC(=O)C[C@H](NC(=O)OCc2ccccc2)c2ccc(OCc3ccccc3)cc2)c1 (racemic)		17 µM (≈ 8.66 µg/mL)		1.04 ×10⁻⁶ cm/s	17 µL/min/mg
O=C(Nc1ccc2c(c1)CNC2)c1cc(F)cc2c1CCC2	37.4 µL/min/mg	187 µM (≈ 55.4 µg/mL)	1.2	10.7 ×10⁻⁶ cm/s	
N#C[C@H](Nc1ccc2c(c1)CNC2)c1cc(Cl)cc2[nH]ncc12 (racemic)		297 µM (≈ 96.2 µg/mL)	0.9	1.1 ×10⁻⁶ cm/s	10.3 µL/min/mg
NCc1cccc(NC(=O)c2cc(OCc3ccccc3)ccc2CNC(=O)OCc2ccccc2)c1		14 µM (≈ 6.94 µg/mL)	2.8	1.75 ×10⁻⁶ cm/s	21 µL/min/mg
c1ccc2sc(C3CCN(Cc4c[nH]c5ccccc45)CC3)nc2c1		119 µM (≈ 41.4 µg/mL)		5.82 ×10⁻⁶ cm/s	38.1 µL/min/mg
NCc1cccc(NC(=O)CN(C(=O)OCc2ccccc2)c2ccc(OCc3ccccc3)cc2)c1		56 µM (≈ 27.8 µg/mL)	2.9	0.899 ×10⁻⁶ cm/s	11 µL/min/mg
CNC(=O)c1cccc(-c2cc3c(N[C@H](c4ccc5c(c4)S(=O)(=O)CCC5)C(C)C)ncnc3[nH]2)c1 (single isomer, unassigned)		13 µM and 15 µM	3.8 and 3.7	0.502 ×10⁻⁶ cm/s and 0.627 ×10⁻⁶ cm/s	746 µL/min/mg and 455 µL/min/mg
COc1cc(-c2cc(NC(=O)c3cc(F)cc4[nH]ncc34)cc3c2CNC3)ccn1	260 µL/min/mg	180 µM (≈ 72.6 µg/mL)	2	0.788 ×10⁻⁶ cm/s	
NCc1cccc(NC(=O)c2cc(Cl)cc(CN)c2)c1		375 µM (≈ 109 µg/mL)	-0.6	1.96 ×10⁻⁶ cm/s	21 µL/min/mg
CC(C)[C@H](Nc1ncnc2[nH]c(-c3cnn(CC(N)=O)c3)cc12)c1ccc2c(c1)OCCO2 (single isomer, unassigned)	16 µL/min/mg and 42 µL/min/mg	280 µM and 332 µM	2.9	1.09 ×10⁻⁶ cm/s and 1.87 ×10⁻⁶ cm/s	
O=C(Nc1ccc2c(c1)CNC2)c1cc(Cl)cc2[nH]ncc12	243 µL/min/mg	279 µM (≈ 87.3 µg/mL)	0.9	1.8 ×10⁻⁶ cm/s	
Cn1cc2c(C(=O)Nc3ccc4c(c3)CNC4)cc(F)cc2n1	18.2 µL/min/mg	309 µM (≈ 95.9 µg/mL)	0.2	3.4 ×10⁻⁶ cm/s	
CCOc1cccc(-c2ccc(S(=O)(=O)Nc3ccc(Cl)cc3C(=O)O)cc2)c1		392 µM (≈ 169 µg/mL)	2.8	6.22 ×10⁻⁶ cm/s	119 µL/min/mg
CC(C)NC(=O)[C@H](Nc1ccc2c(c1)CNC2)c1cc(Cl)cc2[nH]c(-c3ccccc3)nc12 (single isomer, unassigned)	11 µL/min/mg	134 µM (≈ 61.6 µg/mL)	2.8	0.2 ×10⁻⁶ cm/s	
O=C(O)c1cc(Cl)ccc1S(=O)(=O)NC1CCN(c2nc(C3CC3)cc(C(F)(F)F)n2)CC1		380 µM (≈ 192 µg/mL)	2.8	3.65 ×10⁻⁶ cm/s	26.3 µL/min/mg
